Experimental data published in patent publication US7528138B2, “Pyrazolo[1,5-a]pyrimidines useful as inhibitors of protein kinases” (Vertex Pharmaceuticals Incorporated, priority 2004, dated 2009).

Assays:
Format in all cases: biochemical
JAK3 = target: T1, JAK3 (Homo sapiens, UniProt P52333); experiment: JAK3 Inhibition Assay, 33P incorporation; conditions: enzyme inhibition data (Ki), Table 11
T1 sequence (P52333 1-1124): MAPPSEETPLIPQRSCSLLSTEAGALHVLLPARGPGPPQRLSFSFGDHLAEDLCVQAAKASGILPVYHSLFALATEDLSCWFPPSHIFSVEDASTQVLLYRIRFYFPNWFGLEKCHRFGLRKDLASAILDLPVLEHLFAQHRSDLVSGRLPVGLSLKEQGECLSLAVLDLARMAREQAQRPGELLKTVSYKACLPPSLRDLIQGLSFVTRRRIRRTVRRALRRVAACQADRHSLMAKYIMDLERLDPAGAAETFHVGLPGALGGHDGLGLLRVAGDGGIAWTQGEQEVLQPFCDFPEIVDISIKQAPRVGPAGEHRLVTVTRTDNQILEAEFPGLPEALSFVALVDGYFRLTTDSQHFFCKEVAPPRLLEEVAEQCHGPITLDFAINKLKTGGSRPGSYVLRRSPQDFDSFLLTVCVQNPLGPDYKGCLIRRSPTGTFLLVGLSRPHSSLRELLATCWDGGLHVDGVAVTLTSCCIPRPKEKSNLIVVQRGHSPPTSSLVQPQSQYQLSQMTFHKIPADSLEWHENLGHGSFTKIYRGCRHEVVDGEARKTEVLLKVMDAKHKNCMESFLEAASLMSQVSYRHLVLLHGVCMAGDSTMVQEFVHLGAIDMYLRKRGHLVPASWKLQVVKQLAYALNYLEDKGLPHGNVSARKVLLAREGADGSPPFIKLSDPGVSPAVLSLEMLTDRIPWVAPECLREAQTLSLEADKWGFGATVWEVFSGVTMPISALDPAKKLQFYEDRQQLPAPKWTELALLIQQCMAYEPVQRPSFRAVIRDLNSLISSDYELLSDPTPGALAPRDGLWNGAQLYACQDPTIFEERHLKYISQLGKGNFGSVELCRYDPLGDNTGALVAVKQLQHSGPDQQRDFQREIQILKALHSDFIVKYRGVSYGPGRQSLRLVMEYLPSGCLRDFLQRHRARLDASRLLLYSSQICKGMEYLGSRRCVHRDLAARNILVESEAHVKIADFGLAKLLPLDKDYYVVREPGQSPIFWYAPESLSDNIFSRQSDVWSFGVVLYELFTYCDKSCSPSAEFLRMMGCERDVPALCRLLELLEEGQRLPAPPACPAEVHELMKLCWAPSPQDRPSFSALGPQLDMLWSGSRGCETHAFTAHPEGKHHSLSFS
Method: Reactions are carried out in a kinase buffer containing 100 mM HEPES (pH 7.4), 1 mM DTT, 10 mM MgCl2, 25 mM NaCl, and 0.01% BSA. Substrate concentrations in the assay are 5 μM ATP (200 uCi/μmole ATP) and 1 μM poly(Glu)4Tyr. Reactions are carried out at 25° C. and 1 nM JAK3. To each well of a 96 well polycarbonate plate is added 1.5 μl of a candidate JAK3 inhibitor along with 50 μl of kinase buffer containing 2 μM poly(Glu)4Tyr and 10 μM ATP. This is then mixed and 50 μl of kinase buffer containing 2 nM JAK3 enzyme is added to start the reaction. After 20 minutes at room temperature (25 C), the reaction is stopped with 50 μl of 20% trichloroacetic acid (TCA) that also contained 0.4 mM ATP. The entire contents of each well are then transferred to a 96 well glass fiber filter plate using a TomTek Cell Harvester. After washing, 60 μl of scintillation fluid is added and ^33P incorporation detected on a Perkin Elmer TopCount.

Itk = target: T2, Itk (Homo sapiens, UniProt Q08881); experiment: ITK Inhibition Assay (Radiometric), radioactive-phosphate incorporation; conditions: enzyme inhibition data (Ki), Table 11; radiometric or UV assay not stated
T2 sequence (Q08881 1-620): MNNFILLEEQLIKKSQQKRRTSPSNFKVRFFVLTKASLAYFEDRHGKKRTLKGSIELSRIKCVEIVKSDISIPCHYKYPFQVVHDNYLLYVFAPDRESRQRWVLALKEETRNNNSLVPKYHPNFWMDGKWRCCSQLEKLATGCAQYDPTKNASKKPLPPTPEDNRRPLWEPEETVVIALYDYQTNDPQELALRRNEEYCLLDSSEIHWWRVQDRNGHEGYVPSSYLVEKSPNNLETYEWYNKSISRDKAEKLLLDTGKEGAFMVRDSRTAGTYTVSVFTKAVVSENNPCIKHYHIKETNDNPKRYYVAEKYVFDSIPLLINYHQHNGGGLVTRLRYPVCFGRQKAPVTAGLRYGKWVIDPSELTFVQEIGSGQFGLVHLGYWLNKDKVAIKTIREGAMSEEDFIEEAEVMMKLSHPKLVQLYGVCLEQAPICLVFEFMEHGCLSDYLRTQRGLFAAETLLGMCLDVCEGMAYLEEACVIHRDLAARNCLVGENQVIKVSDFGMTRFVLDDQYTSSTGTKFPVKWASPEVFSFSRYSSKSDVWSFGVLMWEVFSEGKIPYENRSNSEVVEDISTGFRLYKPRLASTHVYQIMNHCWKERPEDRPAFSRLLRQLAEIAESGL
Method: Assays are carried out in a mixture of 20 mM MOPS (pH 7.0), 10 mM MgCl2, 0.1% BSA and 1 mM DTT. Final substrate concentrations in the assay are 7.5 μM [γ-33P]ATP (400 mCi 33P ATP/mmol ATP, Amersham Pharmacia Biotech/Sigma Chemicals) and 3 μM peptide (SAM68 protein D332-443). Assays are carried out at 25° C. in the presence of 50 nM Itk. An assay stock buffer solution is prepared containing all of the reagents listed above, with the exception of ATP and the test compound of interest. 50 μL of the stock solution is placed in a 96 well plate followed by addition of 2 μL of DMSO stock containing serial dilutions of the test compound (typically starting from a final concentration of 50 μM with 2-fold serial dilutions) in duplicate (final DMSO concentration 2%). The plate is pre-incubated for 10 minutes at 25° C. and the reaction initiated by addition of 50 μL [γ-33P]ATP (final concentration 7.5 μM).
The reaction is stopped after 10 minutes by the addition of […] 0.2M phosphoric acid+0.01% TWEEN 20. A multiscreen phosphocellulose filter 96-well plate (Millipore, Cat no. MAPHN0B50) is pretreated with 100 μL 0.2M phosphoric acid +0.01% TWEEN 20 prior to the addition of […] of the stopped assay mixture. The plate is washed with 4×200 μL 0.2M phosphoric acid+0.01% TWEEN 20. After drying, 30 μL Optiphase ‘SuperMix’ liquid scintillation cocktail (Perkin Elmer) is added to the well prior to scintillation counting (1450 Microbeta Liquid Scintillation Counter, Wallac).
Ki(app) data are calculated from non-linear regression analysis of the initial rate data using the Prism software package (GraphPad Prism version 3.0cx for Macintosh, GraphPad Software, San Diego Calif., USA).

c-Met = c-Met (Homo sapiens, UniProt P08581); experiment: c-Met Inhibition Assay, coupled enzyme system; conditions: enzyme inhibition data (Ki), Table 11
c-Met, sequence (P08581 25-1390): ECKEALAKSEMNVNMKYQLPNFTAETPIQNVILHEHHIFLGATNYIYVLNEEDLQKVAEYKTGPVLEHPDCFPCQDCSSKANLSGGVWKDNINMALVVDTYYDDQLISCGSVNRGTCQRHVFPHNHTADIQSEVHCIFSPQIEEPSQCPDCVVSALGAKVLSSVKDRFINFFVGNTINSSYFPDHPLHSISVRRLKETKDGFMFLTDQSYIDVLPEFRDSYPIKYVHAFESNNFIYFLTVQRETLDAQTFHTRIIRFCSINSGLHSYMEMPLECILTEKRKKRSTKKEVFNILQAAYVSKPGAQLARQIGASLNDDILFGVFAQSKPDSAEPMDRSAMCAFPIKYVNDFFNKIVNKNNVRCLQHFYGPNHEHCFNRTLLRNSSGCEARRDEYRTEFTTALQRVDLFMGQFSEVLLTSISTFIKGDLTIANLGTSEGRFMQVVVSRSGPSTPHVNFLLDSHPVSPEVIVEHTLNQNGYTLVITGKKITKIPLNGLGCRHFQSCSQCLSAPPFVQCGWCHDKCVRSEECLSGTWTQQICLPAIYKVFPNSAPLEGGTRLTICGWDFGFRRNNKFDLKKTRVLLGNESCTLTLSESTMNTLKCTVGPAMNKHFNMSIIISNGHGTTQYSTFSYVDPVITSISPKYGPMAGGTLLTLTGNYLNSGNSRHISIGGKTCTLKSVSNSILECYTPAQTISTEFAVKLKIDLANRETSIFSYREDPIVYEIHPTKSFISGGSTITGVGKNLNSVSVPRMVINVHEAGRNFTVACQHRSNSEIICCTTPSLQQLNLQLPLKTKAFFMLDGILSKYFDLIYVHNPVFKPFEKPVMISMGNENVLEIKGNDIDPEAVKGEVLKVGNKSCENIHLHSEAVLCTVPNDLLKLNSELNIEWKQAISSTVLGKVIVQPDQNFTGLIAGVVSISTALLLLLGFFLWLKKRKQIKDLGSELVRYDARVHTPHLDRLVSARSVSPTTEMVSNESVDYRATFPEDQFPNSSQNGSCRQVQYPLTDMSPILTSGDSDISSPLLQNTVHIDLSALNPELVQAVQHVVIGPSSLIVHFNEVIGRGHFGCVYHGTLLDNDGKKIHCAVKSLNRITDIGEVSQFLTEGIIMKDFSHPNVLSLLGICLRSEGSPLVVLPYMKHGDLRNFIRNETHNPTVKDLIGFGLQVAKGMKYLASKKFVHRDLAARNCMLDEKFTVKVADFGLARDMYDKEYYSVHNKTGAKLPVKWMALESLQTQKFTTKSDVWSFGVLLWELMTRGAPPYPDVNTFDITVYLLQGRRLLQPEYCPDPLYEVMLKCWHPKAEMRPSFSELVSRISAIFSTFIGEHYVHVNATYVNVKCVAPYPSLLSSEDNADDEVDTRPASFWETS
Method: Compounds are screened for their ability to inhibit c-Met kinase activity using a standard coupled enzyme system (Fox et al., Protein Sci. 1998, 7, 2249). Reactions are carried out in a solution containing 100 mM HEPES (pH 7.5), 10 mM MgCl2, 25 mM NaCl, 300 μM NADH, 1 mM DTT, and 1.5% DMSO. Final substrate concentrations in the assay are 200 μM ATP (Sigma Chemicals, St Louis, Mo.) and 10 μM polyGluTyr (Sigma Chemical Company, St. Louis). Reactions are carried out at 30° C. and 80 nM c-Met. Final concentrations of the components of the coupled enzyme system are 2.5 mM phosphoenolpyruvate, 300 μM NADH, 30 μg/ml pyruvate kinase and 10 μg/ml lactate dehydrogenase.
An assay stock buffer solution is prepared containing all of the reagents listed above with the exception of ATP and a test compound of the present invention. The assay stock buffer solution (175 μl) is incubated in a 96 well plate with 5 μl of the test compound of the present invention at final concentrations spanning 0.006 μM to 12.5 μM at 30° C. for 10 minutes. Typically, a 12-point titration is conducted by preparing serial dilutions (from 10 mM compound stocks) with DMSO of the test compounds of the present invention in daughter plates. The reaction is initiated by the addition of 20 μl of ATP (final concentration 200 μM). Rates of reaction are obtained using a Molecular Devices Spectramax plate reader (Sunnyvale, Calif.) over 10 minutes at 30° C. The Ki values are determined from the rate data as a function of inhibitor concentration.

Row | Ki (JAK3) [µM] | Ki (Itk) [µM] | Ki (c-Met) [µM] | SMILES
1 | > 5 | 0.5 to 5 | 0.5 to 5 | Nc1nn2cc(N3CCCCC3)cnc2c1-c1ccccn1 [Compound V-59]
2 | 0.5 to 5 | 0.5 to 5 | < 0.5 | CN(CCc1ccccn1)C(=O)c1ccc(-c2cnc3c(-c4ccccn4)c(N)nn3c2)nc1 [Compound V-60]
3 | 0.5 to 5 | < 0.5 | < 0.5 | CN1CCC(N(C)C(=O)c2ccc(-c3cnc4c(-c5ccccn5)c(N)nn4c3)nc2)CC1 [Compound V-61]
4 | 0.5 to 5 | 0.5 to 5 | < 0.5 | COC(=O)C1CCCN1C(=O)c1ccc(-c2cnc3c(-c4ccccn4)c(N)nn3c2)nc1 (stereo not drawn) [Compound V-66]
5 | 0.5 to 5 | < 0.5 | < 0.5 | Nc1nn2cc(-c3ccc(C(=O)N4CCC(N)CC4)cn3)cnc2c1-c1ccccn1 [Compound V-69]
6 | > 5 | 0.5 to 5 | 0.5 to 5 | CCCCNC(=O)c1ccc(-c2cnc3c(-c4ccccn4)c(N)nn3c2)nc1 [Compound V-77]
7 | > 5 | < 0.5 | < 0.5 | CCCCN(CCN)C(=O)c1ccc(-c2cnc3c(-c4ccccn4)c(N)nn3c2)nc1 [Compound V-80]
8 | 0.5 to 5 | < 0.5 | < 0.5 | Nc1nn2cc(-c3ccc(C(=O)N4CCC(N5CCCC5)CC4)cn3)cnc2c1-c1ccccn1 [Compound V-84]
9 | 0.5 to 5 | < 0.5 | < 0.5 | CCN(CC)CCN(C)C(=O)c1ccc(-c2cnc3c(-c4ccccn4)c(N)nn3c2)nc1 [Compound V-88]
10 | < 0.5 | < 0.5 | < 0.5 | Nc1nn2cc(-c3ccc(C(=O)N4CCCCC4)cn3)cnc2c1-c1ccccn1 [Compound V-91]
11 | 0.5 to 5 | < 0.5 | < 0.5 | CN(CC1OCCO1)C(=O)c1ccc(-c2cnc3c(-c4ccccn4)c(N)nn3c2)nc1 [Compound V-95]
12 | 0.5 to 5 | < 0.5 | < 0.5 | CCN(CCO)C(=O)c1ccc(-c2cnc3c(-c4ccccn4)c(N)nn3c2)nc1 [Compound V-99]
13 | > 5 | 0.5 to 5 | < 0.5 | CN(CCc1ccccn1)C(=O)c1cccc(-c2cnc3c(-c4ccccn4)c(N)nn3c2)n1 [Compound V-100]
14 | > 5 | 0.5 to 5 | < 0.5 | CC(C)N(C)C(=O)c1cccc(-c2cnc3c(-c4ccccn4)c(N)nn3c2)n1 [Compound V-103]
15 | > 5 | 0.5 to 5 | < 0.5 | CN1CCCN(C(=O)c2cccc(-c3cnc4c(-c5ccccn5)c(N)nn4c3)n2)CC1 [Compound V-105]
16 | 0.5 to 5 | 0.5 to 5 | < 0.5 | Nc1nn2cc(-c3cccc(C(=O)NCCF)n3)cnc2c1-c1ccccn1 [Compound V-107]
17 | > 5 | 0.5 to 5 | < 0.5 | COCCCNC(=O)c1cccc(-c2cnc3c(-c4ccccn4)c(N)nn3c2)n1 [Compound V-108]
18 | > 5 | 0.5 to 5 | < 0.5 | CCCCNC(=O)c1cccc(-c2cnc3c(-c4ccccn4)c(N)nn3c2)n1 [Compound V-109]
19 | 0.5 to 5 | < 0.5 | < 0.5 | CCN(CCCCN)C(=O)c1cccc(-c2cnc3c(-c4ccccn4)c(N)nn3c2)n1 [Compound V-110]
20 | > 5 | 0.5 to 5 | < 0.5 | CCCN(CCO)C(=O)c1cccc(-c2cnc3c(-c4ccccn4)c(N)nn3c2)n1 [Compound V-111]
21 | 0.5 to 5 | < 0.5 | < 0.5 | CCCCN(CCN)C(=O)c1cccc(-c2cnc3c(-c4ccccn4)c(N)nn3c2)n1 [Compound V-113]
22 | > 5 | 0.5 to 5 | < 0.5 | COCCCN1CCN(C(=O)c2cccc(-c3cnc4c(-c5ccccn5)c(N)nn4c3)n2)CC1 [Compound V-117]
23 | > 5 | 0.5 to 5 | < 0.5 | CNC(=O)c1cccc(-c2cnc3c(-c4ccccn4)c(N)nn3c2)n1 [Compound V-118]
24 | 0.5 to 5 | 0.5 to 5 | < 0.5 | Nc1nn2cc(-c3cccc(C(=O)N4CCC(N)C4)n3)cnc2c1-c1ccccn1 (stereo not drawn) [Compound V-119]
25 | 0.5 to 5 | < 0.5 | < 0.5 | CN(CCN)C(=O)c1cccc(-c2cnc3c(-c4ccccn4)c(N)nn3c2)n1 [Compound V-120]
